This is an account of results in US20260085262A1, “ACQ FLUORESCENCE PROBE COMPOSITION, CMC DETERMINATION METHOD, STAIN CLEANING CONCENTRATION DETERMINATION METHOD, DETERGENT DISPENSING CONTROL METHOD, AND DETERGENT DISPENSING CONTROL SYSTEM” (GUANGZHOU BLUEMOON INDUSTRIAL CO., LTD., priority 2024, published 2026).

A short description of data set [1]: Solubility classification of probe molecule in solvent. The note with it: ACQ probe molecule is CUR; label = solvent.
The conditions of data set [2]: cited from earlier work; for Flash point / Viscosity / Volatility/Boiling point: solvent; for Solvent solubility in water: classified with reference to solvent data in Pub Chem.
Data set [3] can be described thus: Hansen solubility parameters (HSP), δ difference and HSP distance Ra.
Data set [4] in a line: cmc determination with probe solutions in NMP, fluorescence spectrophotometer. The class given is physicochemical. The note with it: Supreme Clean solution (directly prepared); probe dissolved in NMP; range read from fluorescence intensity-concentration curve.
Text: (§1) In order to determine whether these fluorescence probe molecules can form a stable probe solution, the inventors dissolved these probe molecules in N-methylpyrrolidone (NMP).
(§2) Detergent solutions prepared in a series of concentrations, including the directly prepared Supreme Clean (i.e. Supreme Biotechnology (Clean) liquid laundry detergent) solution and Supreme Brilliant White (i.e. Supreme Biotechnology (Brilliant White) liquid laundry detergent) washing water containing a fluorescent brightener, are tested using these probe solutions formed above. Specifically, an appropriate wavelength is selected according to the determination results of a fluorescence spectrophotometer, and a fluorescence response value-concentration curve is plotted with detergent concentrations on the x-axis and fluorescence intensity on the y-axis. The change section of the curve from a plateau region to a rising region is visually obtained, corresponding to the value range of the measured value of cmc.
Assay in data set [5]: as above
The class given is physicochemical. As to conditions: Supreme Brilliant White washing water with fluorescent brightener; probe dissolved in NMP.
Text: as §1, §2

A short description of data set [6]: cmc by fluorescence probe method, customized photoelectric detector (CD detector). The note with it: aqueous solution of Supreme Biotechnology (Bright White) laundry detergent; label = solvent for probe. The class given is physicochemical. How it is done: Here, the liquid to be tested is Supreme Biotechnology (Brilliant White) detergent solution (ZZLB), and the detector is a customized photoelectric detector (CD detector).
In addition, due to the use of the CUR-NMP single organic solvent composition system, the solvent addition amount in Table 6 can be considered equivalent to the addition amount of the probe solution. The cmc value is determined using the fitted line intersection method, i.e., according to the determination results of a fluorescence spectrophotometer, an appropriate wavelength is selected within the corresponding fluorescence emission peak range, and a fluorescence response value-concentration curve is plotted with detergent concentrations on the x-axis and fluorescence intensity on the y-axis. The plateau region and the rising region of the curve are fitted by linear regression, respectively, and the intersection point of two fitted lines is obtained. The surfactant concentration on the x-axis corresponding to the intersection point is the cmc concentration (measured value).
The fluorescence photoelectric detector used in the present invention includes any of the following: • 1) including excitation filter (430 nm), dichroic mirror, and emission filter (495 nm), light source: peak wavelength of 430 nm, waveband of 420 to 440 nm, working current: 0.02 A, working voltage: 5V, the acceptable wavelength range of detector of at least 480-510 nm; • 2) including excitation filter (550 nm), dichroic mirror, and emission filter (638 nm), light source: peak wavelength of 550 nm, waveband of 540 to 560 nm, working current: 0.02 A, working voltage: 5V, the acceptable wavelength range of detector of at least 620-650 nm.
Referring to Examples 1 and 3, Supreme Biotechnology (Brilliant White) detergent solution was prepared. […] Determination was carried out using a CD detector in the above two cases.

Data set [7] can be described thus: cmc of detergent solution by fluorescence probe method, fluorescence spectrophotometer (Example 1). The format is physicochemical. As to conditions: aqueous solution of Supreme Biotechnology (Bright White) laundry detergent.
For data set [8] the following is noted: document value; cited from earlier work.
A short description of data set [9]: cmc by surface tension method. The note with it: NMP without probe. The class given is physicochemical. The source says:
Based on the above speculation, the inventors also observed the change in the cmc value at different addition amounts of the NMP solvent (without the probe) used in the CUR-NMP probe solution using the surface tension method. When the addition amount of NMP is less than 1000, the cmc value determined is affected to some extent, but the effect is small. When the addition amount of NMP is less than 400, the cmc value determined is basically not affected, and the result is basically consistent with the result determined by fluorescence spectrometry and conforms to the inference.
FIG. 5 is a graph showing the curves obtained by determining the cmc of the above various brands of detergent solutions using the surface tension method.

[10] abbreviates: HSP distance between solvent and curcumin (CUR).
Where [11] appears, read: total δ of solvent minus total δ of curcumin (CUR).
The mark [12] stands for this setting: HSP distance between solvent and rhodamine B.
Where [13] appears, read: total δ of solvent minus total δ of rhodamine B.

For `OCCCCCO` [1,5-Pentanediol], the “Probe solubility in solvent” value in [1] is “Soluble (0.01-0.1% is soluble)”. Further, in [2], the Flash point is 129 °C, the Viscosity is reported as 128 mPa · s and the Volatility/Boiling point was 242 °C. For the same molecule, in data set [3] (setting [10]), the Ra is given as 6.580 (MPa)^1/2. The δ difference in data set [3] (setting [11]) is 4.118 (MPa)^1/2.
Regarding `Cc1cc(=O)oc2c3c4c(cc12)CCCN4CCC3` [C480, coumarin 480], the cmc value range in [4] was 0.05 to 0.2 g/L; in [5], 0.3 to 1 g/L.
The like results for `COc1cc(/C=C/C(=O)CC(=O)/C=C/c2ccc(O)c(OC)c2)ccc1O` [CUR, curcumin] were, in that order, 0.05 to 0.1 g/L and 0.2 to 0.3 g/L.
For `CN1CCCC1=O` [N-methylpyrrolidone (NMP), N-methylpyrrolidone], in [6], the “cmc value, CUR, By Customized fluorescence photoelectric detector” value is given as 0.116 g/L. Further, the “cmc value, NR, By Customized fluorescence photoelectric detector” value in data set [6] was 0.066 g/L. Also, in [7] (label = solvent for probe), the “cmc value, NR, By Fluorescence spectrophotometer” value turned out to be 0.088 g/L. Besides, the “cmc value, CUR, By Fluorescence spectrophotometer” value in data set [7] (label = solvent for probe (auxiliary agent)) is given as 0.100 g/L. The Flash point in data set [2] was 85 °C. Besides, in data set [2], the Viscosity is on record as 1.65 mPa · s. Moreover, the Volatility/Boiling point in data set [2] is 204 °C. Further, the “Dispersion δD” value in [8] is listed as 18 (MPa)^1/2. Moreover, the “Hydrogen bonding δH” value in data set [8] was 7.2 (MPa)^1/2. In [8], the “Polarity δH” value is listed as 12.3 (MPa)^1/2. In addition, the “Total δ” value in [8] is 22.959 (MPa)^1/2. Besides, the cmc in data set [9] (solvent content 0 (v organic solvent/v water)) turned out to be 0.067 g/L; in data set [9] (solvent content 0.4%), 0.076 g/L; in data set [9] (solvent content 1%), 0.073 g/L; in [9] (solvent content 2%), 0.101 g/L; in data set [9] (solvent content 4%), 0.082 g/L; in data set [9] (solvent content 10%), 0.131 g/L. Further, the cmc in [9] (solvent content 20%) stood at 0.22 g/L. The Ra in data set [3] (setting [10]) is 10.950 (MPa)^1/2; in data set [3] (HSP distance between solvent and pyrene) it was 14.343 (MPa)^1/2; in data set [3] (setting [12]) it was 12.708 (MPa)^1/2. Further, the δ difference in data set [3] (setting [11]) is recorded as 0.380 (MPa)^1/2; in data set [3] (total δ of solvent minus total δ of pyrene) it was 0.050 (MPa)^1/2; in data set [3] (setting [13]) it was −7.494 (MPa)^1/2.
With `c1ccc(Nc2cccc3ccccc23)cc1` [NPN, N-phenyl-1-naphthylamine], the cmc value range in data set [4] fell in the range of 0.02 to 0.05 g/L.
Consider `CCN(CC)c1ccc2nc3c4ccccc4c(=O)cc-3oc2c1` [NR, Nile red], for which the values for the cmc value range in data set [4] and in data set [5] were 0.05 to 0.1 g/L and 0.2 to 0.3 g/L, respectively.
In [4], `c1cc2ccc3cccc4ccc(c1)c2c34` [PYR, pyrene, reference compound] displayed a cmc value range of 0.05 to 0.2 g/L. In data set [5], this molecule had a cmc value range of 0.03 to 0.1 g/L. Moreover, in [8], the “Dispersion δD” value is 22.5 (MPa)^1/2, the “Hydrogen bonding δH” value is reported as 4 (MPa)^1/2, the “Polarity δH” value is recorded as 1.6 (MPa)^1/2 and the “Total δ” value is reported as 22.909 (MPa)^1/2.
As for `CCN(CC)c1ccc2c(-c3ccccc3C(=O)O)c3ccc(=[N+](CC)CC)cc-3oc2c1` [RhB, rhodamine B, reference compound], in data set [4], the cmc value range fell in the range of 0.1 to 0.15 g/L. The cmc value range in data set [5] lay within 0.3 to 1 g/L. Moreover, in [8], the “Dispersion δD” value is 16.7 (MPa)^1/2, the “Hydrogen bonding δH” value was 18.5 (MPa)^1/2, the “Polarity δH” value was 17.5 (MPa)^1/2 and the “Total δ” value is on record as 30.453 (MPa)^1/2.
On to `CCCCCC` [n-Hexane], for which, in data set [1], the “Probe solubility in solvent” value is given as “Insoluble”. For the same molecule, in [2], the “Solvent solubility in water” value is reported as “Insoluble” and the Volatility/Boiling point was 69 °C. Further, the Ra in data set [3] (setting [10]) was 15.204 (MPa)^1/2. In data set [3] (setting [11]), the δ difference was −7.679 (MPa)^1/2.
For the molecule `CCCCCCCCO` [n-Octanol], in [1], the “Probe solubility in solvent” value is “Soluble (0.01-0.1% is soluble)”. In data set [2], the “Solvent solubility in water” value is recorded as “Insoluble”, the Flash point is 81 °C, the Viscosity is reported as 8.93 mPa · s and the Volatility/Boiling point was 195 °C. Besides, in [8], the “Dispersion δD” value was 16 (MPa)^1/2, the “Hydrogen bonding δH” value is recorded as 11.9 (MPa)^1/2, the “Polarity δH” value is on record as 5 (MPa)^1/2 and the “Total δ” value is 20.557 (MPa)^1/2. The Ra in data set [3] (setting [10]) is given as 3.753 (MPa)^1/2. Moreover, the Ra in data set [3] (setting [12]) is listed as 14.205 (MPa)^1/2. Also, in data set [3] (setting [11]), the δ difference is listed as −2.022 (MPa)^1/2. Also, the δ difference in [3] (setting [13]) is given as −9.896 (MPa)^1/2.
